Experimental data published in patent US9684238B2, “Fluorene-type compound, photopolymerization initiator comprising said fluorene-type compound, and photosensitive composition containing said photopolymerization initiator” (TOKYO OHKA KOGYO CO., LTD., priority 2012, dated 2017).

Experiments:
[1] = Transmittance of transparent cured film; format: physicochemical
How it was run: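 Films cured at 80 mJ/cm^2 exposure, otherwise prepared as in the earlier film evaluation. Spectrophotometer read in quartz cell, 1 cm path, giving transmittance (%) at 400 nm and average transmittance (%) over 400–700 nm.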

[2] = Solubility in PGME, PGMEA and ethyl lactate; format: physicochemical
[3] = Transparency: coloring of the photopolymerization initiator before and after exposure; format: physicochemical; conditions: 40 g/L in tetrahydrofuran; 365 nm UV, 850 to 2,550 mJ/cm^2; compared with compound C-1
Description: An influence on the coloring of a photopolymerization initiator after its exposure was confirmed because the photopolymerization initiator was required to have transparency. Specifically, as described below, the degrees of coloring (color change) of the photopolymerization initiator itself before and after its exposure were evaluated by measuring its absorbance. A 40 g/L solution of the compound 4 of Synthesis Example 4 in tetrahydrofuran was prepared, and the solution was loaded into a lidded UV cell made of quartz (12.5×12.5×58 mm) having an optical path length of 1 cm. The absorption spectrum of the solution before its exposure was measured with a spectrophotometer (manufactured by Hitachi High-Technologies Corporation, trade name: “U-3900H”). After that, the quartz surface of the UV cell was vertically irradiated with 850 mJ/cm^2 of UV light having a wavelength of 365 nm by using an exposure apparatus (manufactured by Ushio Inc., trade name: “[…]” (ML-251A/B) and optical unit (PM25C-100)), and the absorption spectrum of the solution was measured again. The foregoing operations were repeatedly performed, and a change in absorbance of the solution by UV irradiation was measured. […]
The axis of abscissa of the graph of FIG. 1(A) indicates the measurement wavelength (nm) of an absorption spectrum and the axis of ordinate thereof indicates an absorbance (Abs.) at the wavelength. […]

[4] = Absorption coefficient (absorbance of 0.001% solution in tetrahydrofuran); format: physicochemical
How it was run: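 Absorbance of a 0.001% (wt/vol) solution in tetrahydrofuran recorded by spectrophotometer. Absorption maximum wavelength (λmax) taken from the spectrum within 280–400 nm.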

[5] = Evaluation 3: 20-μm pattern line width of black photosensitive composition; conditions: black composition (carbon black, cardo resin), initiator 0.4 mmol
How it was run: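 Composition spin-coated on glass to 1.0 μm dry thickness, dried 90 °C for 10 min, exposed at 10–80 mJ/cm^2 via high-pressure mercury lamp through 20 μm negative mask, developed in 0.1 wt % TMAH, rinsed. Line width of remaining cured film measured; larger width means higher sensitivity.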

[6] = Average transmittance of composition; format: physicochemical; conditions: photosensitive composition, quartz cell, optical path length 1 cm
Description: The average transmittance (%) of each of the photosensitive resin compositions obtained in Examples 1 to 9, Examples 2-1 to 2-10, and Comparative Examples 1 and 2 in the range of from 400 nm to 700 nm was measured with a spectrophotometer (manufactured by Hitachi High-Technologies Corporation, trade name: “U-3900H”, quartz cell, optical path length; 1 cm).

[7] = cured at exposure energy quantity 80 mJ/cm^2
[8] = photopolymerization initiator containing the compound
[9] = 0.001% (wt/vol) solution in tetrahydrofuran

**Q.** With `CCCC1(CCC)c2cc(C(=O)c3ccccc3C)ccc2-c2ccc(/C(C)=N/OC(C)=O)cc21` [Compound 4] as the compound, how does the “Average transmittance (700 nm to 400 nm) Transparent cured film” value [1, 7] read?
**A.** 99.9%

**Q.** What about the “Transmittance (400 nm) Transparent cured film” value [1, 7] of the same compound?
**A.** 99.4%

**Q.** What about the “transparency of photosensitive composition and formed product (in words)” value [1, 8] of the same compound?
**A.** additionally excellent transparency

**Q.** What about the “Solubility Ethyl lactate” value ([2]; in 100 parts by weight of ethyl lactate, room temperature) of the same compound?
**A.** B (An amount in the range of from 5 parts by weight or more to less than 10 parts by weight of the photopolymerization initiator is dissolved.)

**Q.** What about the “Solubility PGMEA” value ([2]; in 100 parts by weight of propylene glycol monomethyl ether acetate, room temperature) of the same compound?
**A.** A (10 Parts by weight or more of the photopolymerization initiator is dissolved.)

**Q.** What about the “Solubility PGME” value ([2]; in 100 parts by weight of propylene glycol monomethyl ether, room temperature) of the same compound?
**A.** B (An amount in the range of from 5 parts by weight or more to less than 10 parts by weight of the photopolymerization initiator is dissolved.)

**Q.** What about the “solubility (in words)” value [2, 8] of the same compound?
**A.** additionally excellent solubility

**Q.** And the “influence on the coloring by the exposure” value [3]?
**A.** small

**Q.** What about the “Λ max (absorption maximum wavelength)” value ([4]; 0.001% (wt/vol) in tetrahydrofuran, from 280 nm to 400 nm) of the same compound?
**A.** 330.5 nm

**Q.** What about the “Absorption coefficient at 365 nm” value [4, 9] of the same compound?
**A.** 2.2 mL/mg/cm

**Q.** And the “Absorption coefficient at Λ max” value [4, 9]?
**A.** 85.7 mL/mg/cm

**Q.** What about the “20-μm pattern line width” value ([5]; 10 mJ/cm^2) of the same compound?
**A.** 19.4

**Q.** What about the “20-μm pattern line width” value ([5]; 20 mJ/cm^2) of the same compound?
**A.** 20.0

**Q.** What about the “20-μm pattern line width” value ([5]; 40 mJ/cm^2) of the same compound?
**A.** 21.3

**Q.** And the “20-μm pattern line width” value ([5]; 60 mJ/cm^2)?
**A.** 22.1

**Q.** What about the “20-μm pattern line width” value ([5]; 80 mJ/cm^2) of the same compound?
**A.** 22.4

**Q.** What about the “Average transmittance (700 nm to 400 nm) Solution” value [6] of the same compound?
**A.** 96.3%
